Counter-ions that a name gives are not always drawn.
How the values were obtained:
[1] = test system: Pfeiffer cell line (diffuse large B cell lymphoma); assay: Pfeiffer cell proliferation assay; type: cell-based; settings: Homo sapiens, Pfeiffer, Pfeiffer cells, 3-4 days plus 12 hours [3H]-thymidine incorporation
Summary of the method: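 Pfeiffer DLBCL cells grown in RPMI/10% FBS at 2×10^3 cells/well in ultra-low-binding plates with a range of compound concentrations for 3-4 days. [3H]-thymidine (1 μCi/well) was then added for 12 h more. Incorporation was read by filtration and scintillation counting.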

PI3Kδ (p110δ/p85α) = target: T1, PI3Kδ (p110δ/p85α) (Homo sapiens, UniProt O00329); assay: PI3Kδ scintillation proximity assay; type: biochemical; settings: 20 μM ATP, 4 nM PI3Kδ
T1 construct: purchased Millipore (Bedford, Mass.)
T1 sequence (O00329 whole entry, species assumed): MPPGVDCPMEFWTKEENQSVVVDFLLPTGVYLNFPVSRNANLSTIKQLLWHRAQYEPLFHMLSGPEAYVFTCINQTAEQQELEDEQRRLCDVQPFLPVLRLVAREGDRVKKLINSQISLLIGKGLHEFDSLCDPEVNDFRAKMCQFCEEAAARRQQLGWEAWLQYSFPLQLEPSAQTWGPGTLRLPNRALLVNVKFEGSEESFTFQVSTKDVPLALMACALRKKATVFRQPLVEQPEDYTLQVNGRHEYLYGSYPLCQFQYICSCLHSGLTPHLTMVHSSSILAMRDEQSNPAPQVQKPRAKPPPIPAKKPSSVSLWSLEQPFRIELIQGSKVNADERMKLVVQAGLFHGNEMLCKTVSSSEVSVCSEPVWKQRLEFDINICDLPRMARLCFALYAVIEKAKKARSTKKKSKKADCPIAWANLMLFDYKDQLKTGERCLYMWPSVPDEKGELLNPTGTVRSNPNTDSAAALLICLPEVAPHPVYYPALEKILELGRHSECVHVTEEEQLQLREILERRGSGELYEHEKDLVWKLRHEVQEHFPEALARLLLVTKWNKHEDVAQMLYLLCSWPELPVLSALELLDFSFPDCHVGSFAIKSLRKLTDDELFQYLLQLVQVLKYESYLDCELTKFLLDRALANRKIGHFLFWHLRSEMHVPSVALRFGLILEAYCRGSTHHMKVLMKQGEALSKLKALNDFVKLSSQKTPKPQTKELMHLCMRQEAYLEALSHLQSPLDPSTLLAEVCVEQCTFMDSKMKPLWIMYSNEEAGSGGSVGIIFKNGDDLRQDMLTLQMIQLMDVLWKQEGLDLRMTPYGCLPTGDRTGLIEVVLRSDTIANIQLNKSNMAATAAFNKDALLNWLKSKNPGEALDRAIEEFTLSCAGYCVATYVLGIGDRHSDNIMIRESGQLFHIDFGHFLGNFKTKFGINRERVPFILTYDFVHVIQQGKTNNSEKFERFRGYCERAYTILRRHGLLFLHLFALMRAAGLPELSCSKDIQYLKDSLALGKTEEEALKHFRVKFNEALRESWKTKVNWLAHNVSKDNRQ
T1 sequence (P27986 whole entry partner, species assumed): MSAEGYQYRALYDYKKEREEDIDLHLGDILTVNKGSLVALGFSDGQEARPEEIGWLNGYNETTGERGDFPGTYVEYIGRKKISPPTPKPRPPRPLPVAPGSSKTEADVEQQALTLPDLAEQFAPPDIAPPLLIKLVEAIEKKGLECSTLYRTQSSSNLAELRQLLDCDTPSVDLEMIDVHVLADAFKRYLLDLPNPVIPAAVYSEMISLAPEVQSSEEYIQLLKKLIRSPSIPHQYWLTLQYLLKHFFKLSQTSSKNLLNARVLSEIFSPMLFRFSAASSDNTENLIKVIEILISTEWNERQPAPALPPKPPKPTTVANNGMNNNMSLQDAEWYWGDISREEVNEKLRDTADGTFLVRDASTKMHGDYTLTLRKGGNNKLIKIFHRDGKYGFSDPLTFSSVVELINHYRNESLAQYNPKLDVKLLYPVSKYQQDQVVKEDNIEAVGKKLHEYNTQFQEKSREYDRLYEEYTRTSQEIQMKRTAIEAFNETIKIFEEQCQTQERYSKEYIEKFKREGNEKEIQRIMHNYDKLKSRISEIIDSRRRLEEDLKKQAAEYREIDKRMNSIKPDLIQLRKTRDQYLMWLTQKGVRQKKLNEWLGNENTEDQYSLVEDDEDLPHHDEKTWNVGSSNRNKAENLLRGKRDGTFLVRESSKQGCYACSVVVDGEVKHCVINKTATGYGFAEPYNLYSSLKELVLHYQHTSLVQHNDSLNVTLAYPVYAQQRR
Summary of the method: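 p110δ/p85α (4 nM) phosphorylated 20 μM PIP2 with 20 μM ATP plus [γ-33P]ATP in 20 mM MOPS pH 6.7, 10 mM MgCl2, 5 mM DTT, 0.03% CHAPS, 0.5% DMSO, 210 min at room temperature. EDTA quench, WGA SPA bead capture, scintillation counting; IC50 from log-concentration fit.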

| Compound | IC50 [1] | IC50 (PI3Kδ (p110δ/p85α)) |
| --- | --- | --- |
| COc1cncc(-c2c(C)c(Cl)cc(C(C)Nc3ncnc4[nH]cnc34)c2OC)c1 (centres unmarked) [Example 34, N-{1-[5-chloro-2-methoxy-3-(5-methoxypyridin-3-yl)-4-methylphenyl]ethyl}-9H-purin-6-amine] | < 0.1 µM | < 0.05 µM |
| COc1c(C(C)Nc2ncnc3[nH]cnc23)cc(Cl)c(C)c1-c1ccnc(N2CCOCC2)c1F (centres unmarked) [Example 49, N-{1-[5-chloro-3-(3-fluoro-2-morpholin-4-ylpyridin-4-yl)-2-methoxy-4-methylphenyl]ethyl}-9H-purin-6-amine] | < 0.1 µM | < 0.05 µM |
| Cc1c(Cl)cc(C(C)Nc2ncnc3[nH]cnc23)c(-c2cc(F)cc(F)c2)c1-c1cccnc1 (centres unmarked) [Example 78, N-[1-(4-chloro-3′,5′-difluoro-5-methyl-6-pyridin-3-ylbiphenyl-2-yl)ethyl]-9H-purin-6-amine] | < 0.1 µM | < 0.05 µM |
| COc1c(C(C)Nc2ncnc3[nH]cnc23)cc(Cl)c(C)c1-c1cncc(C(=O)N2CCOCC2)c1 (centres unmarked) [Example 111, N-(1-{5-chloro-2-methoxy-4-methyl-3-[5-(morpholin-4-ylcarbonyl)pyridin-3-yl]phenyl}ethyl)-9H-purin-6-amine] | < 0.1 µM | < 0.05 µM |
| COc1ncc(-c2c(C)c(Cl)cc(C(C)Nc3ncnc4[nH]cnc34)c2-c2cc(F)cc(F)c2)cn1 (centres unmarked) [Example 82, N-{1-[4-chloro-3′,5′-difluoro-6-(2-methoxypyrimidin-5-yl)-5-methylbiphenyl-2-yl]ethyl}-9H-purin-6-amine] | < 0.1 µM | < 0.05 µM |
| Cc1noc(C)c1-c1c(C)c(Cl)cc(C(C)Nc2ncnc3[nH]cnc23)c1-c1cccc(F)c1 (centres unmarked) [Example 71, N-{1-[4-chloro-6-(3,5-dimethylisoxazol-4-yl)-3′-fluoro-5-methylbiphenyl-2-yl]ethyl}-9H-purin-6-amine trifluoroacetate] | < 0.1 µM | < 0.05 µM |
| COc1ncc(-c2c(C)c(Cl)cc(C(C)Nc3ncnc4[nH]cnc34)c2OC)cc1F (centres unmarked) [Example 109, N-{1-[5-chloro-3-(5-fluoro-6-methoxypyridin-3-yl)-2-methoxy-4-methylphenyl]ethyl]-9H-purin-6-amine] | < 0.1 µM | < 0.05 µM |
| COc1c(C(C)Nc2ncnc3[nH]cnc23)cc(Cl)c(C)c1-c1cnc(N(C)C)nc1 (centres unmarked) [Example 20, N-(1-{5-chloro-3-[2-(dimethylamino)pyrimidin-5-yl]-2-methoxy-4-methylphenyl}ethyl)-9H-purin-6-amine] | 0.1 to 0.5 µM | < 0.05 µM |

Next, values leading:

| IC50 [1] | IC50 (PI3Kδ (p110δ/p85α)) | Compound |
| --- | --- | --- |
| < 0.1 µM | < 0.05 µM | Cc1c(Cl)cc(C(C)Nc2ncnc3[nH]cnc23)c(-c2ccccc2)c1-c1ccc(C(=O)NC2CC2)cc1 (centres unmarked) [Example 16, 5′-chloro-N-cyclopropyl-6′-methyl-3′-[1-(9H-purin-6-ylamino)ethyl]-1,1′:2′,1″-terphenyl-4-carboxamide] |
| < 0.1 µM | < 0.05 µM | CNC(=O)c1ccc(-c2c(C)c(Cl)cc(C(C)Nc3ncnc4[nH]cnc34)c2OC)cc1Cl (centres unmarked) [Example 37, 3,3′-dichloro-6′-methoxy-N,2′-dimethyl-5′-[1-(9H-purin-6-ylamino)ethyl]biphenyl-4-carboxamide] |
| < 0.1 µM | < 0.05 µM | COc1c(C(C)Nc2ncnc3[nH]cnc23)cc(Cl)c(C)c1-c1ccnc(Cl)c1 (centres unmarked) [Example 98, N-{1-[5-chloro-3-(2-chloropyridin-4-yl)-2-methoxy-4-methylphenyl]ethyl}-9H-purin-6-amine] |
| < 0.1 µM | < 0.05 µM | Cc1c(Cl)cc(C(C)Nc2ncnc3[nH]cnc23)c(-c2cccc(F)c2)c1-c1ccnn1C (centres unmarked) [Example 74, N-{1-[4-chloro-3′-fluoro-5-methyl-6-(1-methyl-1H-pyrazol-5-yl)biphenyl-2-yl]ethyl}-9H-purin-6-amine] |
| < 0.1 µM | < 0.05 µM | COc1c(C(C)Nc2ncnc3[nH]cnc23)cc(Cl)c(C)c1-c1ccnc(F)c1 (centres unmarked) [Example 84, N-{1-[5-chloro-3-(2-fluoropyridin-4-yl)-2-methoxy-4-methylphenyl]ethyl}-9H-purin-6-amine] |
